Reference: US3985774A, “Purification of γ-oxo-2-dibenzofuranbutyric acid” (American Home Products Corporation, priority 1972, dated 1976)

Experiments:
carragheenin paw edema = carragheenin paw edema test; assay type: in vivo, rat; settings: rats; for % INHIBITION of edema / EDEMA (results expressed in grams of mercury displaced): 3 h after carragheenin
Method: A. Winter, et al., Proc. Soc. Exp. Biol., lll, 544 (1962). […] A. Winter in "Non-Steroidal Anti-inflammatory Drugs", S. Garattine and M. N. G. Dukes, Eds., Excerpta Medica International Congress, Ser. No. 82, 1965, p. 190.
More particularly exemplified a substantial effect for γ-oxo-2-dibenzofuranbutyric acid is demonstrable at oral doses of 200 mg/kg or less in this paw edema test. In this test rats are treated with the test compound one hour before a 1% suspension of carragheenin in saline is injected into the subplantar area of the hind paw of the rat. Results are obtained by measuring the increase in paw volume caused by the resulting edema three hours later by plethysmography in mercury and expressing values as grams of mercury displaced. Control animals receive the vehicle only. The results are expressed as percent inhibition in edematous swelling calculated as [formula] where Δ control is the increase in volume measured in untreated controls and Δ treated is the increase in volume found in the treated animals.
The following table lists the results obtained for both γ-oxo-2-dibenzofuranbutyric acid (l) and its isomer ll.

inflammatory conditions = assay: antiinflammatory activity (pharmacologic testing); assay type: in vivo; settings: for antiinflammatory properties / activity: in vivo
[1] = analgesic activity (standard pharmacologic test); settings: in vivo
Text: (§1) The useful antiinflammatory, analgesic and antipyretic activities of the product of this invention is demonstrable in standard pharmacologic tests, for example, the test described by R. A. Turner in "Screening Method in Pharmacology", Academic Press, New York and London, 1965, pp. 152-163, pp. 100-117 and pp. 298-299, respectively.

[2] = antipyretic activity (standard pharmacologic test); settings: in vivo
Text: as §1

warm-blooded animals = assay: toxicity / tolerance (acute toxicity tests and prolonged administration); settings: in vivo
gastrointestinal ulcers = assay: ulcerogenic activity in a modification of a known method; assay type: in vivo; settings: therapeutic dose levels
solubility in water = assay type: physicochemical

Q: For `O=C(O)CCC(=O)c1ccc2oc3ccccc3c2c1` [γ-oxo-2-dibenzofuranbutyric acid], which “% INHIBITION of edema” value (carragheenin paw edema; Experiment A, 50 mg/kg, oral) is on record?
A: 37%

Q: What about the “EDEMA (results expressed in grams of mercury displaced)” value (carragheenin paw edema; Experiment A, 50 mg/kg, oral) of the same molecule?
A: 7.7 ± 0.88 grams of mercury displaced

Q: And the “% INHIBITION of edema” value (carragheenin paw edema; Experiment A, 100 mg/kg, oral)?
A: 54%

Q: What about the “EDEMA (results expressed in grams of mercury displaced)” value (carragheenin paw edema; Experiment A, 100 mg/kg, oral) of the same molecule?
A: 5.7 ± 0.42 grams of mercury displaced

Q: What about the “% INHIBITION of edema” value (carragheenin paw edema; Experiment A, 200 mg/kg, oral) of the same molecule?
A: 78%

Q: And the “EDEMA (results expressed in grams of mercury displaced)” value (carragheenin paw edema; Experiment A, 200 mg/kg, oral)?
A: 2.7 ± 0.36 grams of mercury displaced

Q: And the “% INHIBITION of edema” value (carragheenin paw edema; Experiment C, 100 mg/kg)?
A: 60%

Q: And the “EDEMA (results expressed in grams of mercury displaced)” value (carragheenin paw edema; Experiment C, 100 mg/kg)?
A: 4.8 ± 0.46 grams of mercury displaced

Q: And the minimal effective dose (carragheenin paw edema; Rattus norvegicus, oral, read-out: oral dose at which a substantial effect is demonstrable)?
A: ≤ 200 mg/kg

Q: What about the “activity compared with isomer ll (Student's t test)” value (carragheenin paw edema; paw edema test) of the same molecule?
A: significantly more active than the isomer ll

Q: And the “antiinflammatory activity compared with isomer ll” value (inflammatory conditions; acid l versus isomer ll)?
A: somewhat more active

Q: What about the “onset of action compared with isomer ll” value (inflammatory conditions; acid l versus isomer ll) of the same molecule?
A: quicker onset of action

Q: And the “antiinflammatory properties / activity” value (inflammatory conditions)?
A: important antiinflammatory properties

Q: And the “antiinflammatory properties / activity” value (inflammatory conditions; listed as acid l)?
A: have antiinflammatory activity

Q: What about the analgesic activity [1] of the same molecule?
A: possesses analgesic and antipyretic activity

Q: What about the antipyretic activity [2] of the same molecule?
A: possesses analgesic and antipyretic activity

Q: What about the side effects (warm-blooded animals) of the same molecule?
A: lack of side effects

Q: And the therapeutic index (warm-blooded animals)?
A: highly favorable therapeutic index

Q: And the tolerance (warm-blooded animals)?
A: exceptionally well tolerated

Q: And the toxicity (warm-blooded animals)?
A: low order of toxicity

Q: And the “formation of gastrointestinal ulcers” value (gastrointestinal ulcers)?
A: does not cause formation of gastrointestinal ulcers

Q: What about the solubility in water (solubility in water) of the same molecule?
A: only limited solubility in water

Q: With `O=C(O)CCC(=O)c1ccc2c(c1)oc1ccccc12` [γ-oxo-3-dibenzofuranbutyric acid] as the molecule, how does the “% INHIBITION of edema” value (carragheenin paw edema; Experiment B, 100 mg/kg) read?
A: 5%

Q: And the “EDEMA (results expressed in grams of mercury displaced)” value (carragheenin paw edema; Experiment B, 100 mg/kg)?
A: 13.6 ± 1.38 grams of mercury displaced

Q: And the “% INHIBITION of edema” value (carragheenin paw edema; Experiment B, 200 mg/kg)?
A: 34%

Q: What about the “EDEMA (results expressed in grams of mercury displaced)” value (carragheenin paw edema; Experiment B, 200 mg/kg) of the same molecule?
A: 9.5 ± 1.11 grams of mercury displaced

Q: And the “% INHIBITION of edema” value (carragheenin paw edema; Experiment B, 400 mg/kg)?
A: 28%

Q: What about the “EDEMA (results expressed in grams of mercury displaced)” value (carragheenin paw edema; Experiment B, 400 mg/kg) of the same molecule?
A: 10.3 ± 1.05 grams of mercury displaced

Q: What about the “% INHIBITION of edema” value (carragheenin paw edema; Experiment C, 100 mg/kg) of the same molecule?
A: 18%

Q: What about the “EDEMA (results expressed in grams of mercury displaced)” value (carragheenin paw edema; Experiment C, 100 mg/kg) of the same molecule?
A: 9.9 ± 0.67 grams of mercury displaced

Q: What about the “antiinflammatory properties / activity” value (inflammatory conditions) of the same molecule?
A: have antiinflammatory activity
